Source: ChEMBL document CHEMBL1149241 (J Med Chem, 2004)

Molecular target: Beta-secretase 1 (Homo sapiens, UniProt P56817)
Assay: Inhibition of BACE1 by electrochemiluminescence assay

Beta-secretase 1, sequence (P56817 whole entry): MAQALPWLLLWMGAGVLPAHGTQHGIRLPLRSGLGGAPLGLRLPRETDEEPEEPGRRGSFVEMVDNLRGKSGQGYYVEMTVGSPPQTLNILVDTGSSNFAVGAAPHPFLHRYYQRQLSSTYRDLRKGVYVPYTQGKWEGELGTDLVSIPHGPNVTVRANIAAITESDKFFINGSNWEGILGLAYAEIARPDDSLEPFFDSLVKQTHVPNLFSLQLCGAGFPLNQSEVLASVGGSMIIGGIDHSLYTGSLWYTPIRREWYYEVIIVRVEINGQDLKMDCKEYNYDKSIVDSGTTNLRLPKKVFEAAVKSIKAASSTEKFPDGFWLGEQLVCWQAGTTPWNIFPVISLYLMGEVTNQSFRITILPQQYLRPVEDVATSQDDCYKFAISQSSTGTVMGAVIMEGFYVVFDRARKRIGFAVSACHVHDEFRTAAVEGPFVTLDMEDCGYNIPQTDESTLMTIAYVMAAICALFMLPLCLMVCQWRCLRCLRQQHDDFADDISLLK

IC50 [µM]	SMILES
21	C[C@@H](NC(=O)c1cc(OCC(=O)NCCCCCN)cc(-c2ccccc2C#N)c1)c1ccccc1
3.4	C[C@@H](NC(=O)c1cc(OCC(=O)NCCCCCN)cc(OS(=O)(=O)Cc2ccccc2)c1)c1ccccc1
> 100	CC(NC(=O)c1cc(OCC(=O)NCCCCCN)cc(OS(=O)(=O)Cc2ccccc2)c1)c1ccccc1 (single isomer, unassigned)
